Measurements published in patent US8053603B2, “Tetralone-based monoamine reuptake inhibitors” (Sunovion Pharmaceuticals Inc., priority 2006, dated 2011).
Where two headings read alike, the source gives them in different places.

Legend:
[1] = in vivo; cited from earlier work
[2] = biological target: serotonin uptake sites (Homo sapiens, UniProt P31645); conditions: versus racemic 1-(3,4-dichlorophenyl)-3-azabicyclo[3.1.0]hexane; cited from earlier work
[3] = biological target: T1, recombinant human serotonin transporter (Homo sapiens, UniProt P31645); assay: Serotonin functional uptake assay for human reuptake transporter; format: cell-based; conditions: [3H]serotonin uptake, HEK-293 cells expressing human serotonin transporter; read-out: Human IC50 (nM) SERT
T1 construct: expressed in transfected cells; host or cells: HEK-293
T1 sequence (P31645 whole entry): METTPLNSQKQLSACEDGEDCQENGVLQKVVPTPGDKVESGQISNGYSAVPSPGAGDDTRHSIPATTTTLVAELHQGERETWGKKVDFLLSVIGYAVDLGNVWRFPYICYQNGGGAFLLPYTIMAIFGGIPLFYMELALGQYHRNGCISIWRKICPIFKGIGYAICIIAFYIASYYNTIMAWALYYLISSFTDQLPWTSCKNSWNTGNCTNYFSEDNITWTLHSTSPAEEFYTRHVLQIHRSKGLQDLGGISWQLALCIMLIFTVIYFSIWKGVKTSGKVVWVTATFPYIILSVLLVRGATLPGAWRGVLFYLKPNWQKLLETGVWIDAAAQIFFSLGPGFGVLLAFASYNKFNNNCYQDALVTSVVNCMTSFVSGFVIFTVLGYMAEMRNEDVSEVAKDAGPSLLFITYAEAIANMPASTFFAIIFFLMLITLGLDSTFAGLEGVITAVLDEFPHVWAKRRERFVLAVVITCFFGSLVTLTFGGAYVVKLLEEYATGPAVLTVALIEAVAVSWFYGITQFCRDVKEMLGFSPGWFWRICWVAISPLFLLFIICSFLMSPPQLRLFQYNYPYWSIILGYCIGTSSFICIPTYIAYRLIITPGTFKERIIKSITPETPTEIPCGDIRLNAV
Description: Serotonin Functional Uptake Assay for Human Reuptake Transporter
HEK-293 cells expressing human serotonin transporter were plated before the assay. […] Cells with internalized [^3H]serotonin were washed and the amount of tritium taken into cells is counted using a liquid scintillation counter to determine [^3H]serotonin uptake.

[4] = biological target: T2, recombinant human dopamine transporter (Homo sapiens, UniProt Q01959); assay: Dopamine functional uptake assay for human reuptake transporter; format: cell-based; conditions: [3H]dopamine uptake, CHO-K1 or HEK293 cells expressing human dopamine transporter; read-out: Human IC50 (nM) DAT
T2 construct: expressed in transfected cells; host or cells: CHO-K1 or HEK293
T2 sequence (Q01959 whole entry): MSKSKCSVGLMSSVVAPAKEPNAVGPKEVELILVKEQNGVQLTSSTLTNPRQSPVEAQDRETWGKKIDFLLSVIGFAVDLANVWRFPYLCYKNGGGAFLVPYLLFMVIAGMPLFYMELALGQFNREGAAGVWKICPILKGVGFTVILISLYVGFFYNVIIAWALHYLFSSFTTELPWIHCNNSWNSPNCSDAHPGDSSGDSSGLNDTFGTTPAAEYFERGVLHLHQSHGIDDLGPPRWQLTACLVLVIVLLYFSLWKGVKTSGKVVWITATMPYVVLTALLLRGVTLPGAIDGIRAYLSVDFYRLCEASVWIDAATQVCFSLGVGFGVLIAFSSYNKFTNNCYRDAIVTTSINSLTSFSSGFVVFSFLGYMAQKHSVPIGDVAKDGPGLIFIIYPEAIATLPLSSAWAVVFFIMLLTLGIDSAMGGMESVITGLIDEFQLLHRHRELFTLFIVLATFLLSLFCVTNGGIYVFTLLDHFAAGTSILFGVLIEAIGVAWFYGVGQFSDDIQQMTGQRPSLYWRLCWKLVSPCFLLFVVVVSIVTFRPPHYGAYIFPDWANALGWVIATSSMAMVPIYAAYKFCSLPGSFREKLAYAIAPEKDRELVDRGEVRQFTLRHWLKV
Description: Dopamine Functional Uptake Assay for Human Reuptake Transporter
Either CHO-K1 or HEK293 cells expressing human recombinant dopamine transporter were plated before the assay. Test compound and/or vehicle was preincubated with cells in modified HEPES buffer pH 7.1 or pH 7.4 for 20 minutes at 18 to 25° C. and 50 nM [^3H]dopamine was then added for an additional timed incubation period (10 to 30 minutes). After washing the cells to remove [^3H]dopamine not internalized, the cells were lysed, and the amount of tritium in the lysate was measured using a liquid scintillation counter to determine [^3H]dopamine uptake. Non-specific binding of tritium was measured in a control reaction containing 10 μM nomifensine, and was subtracted from the counts for assays to correct for non-specific binding of tritium. Reduction of [^3H]dopamine uptake by 50 percent or more (≧50%) relative to an uninhibited control reaction indicates significant inhibitory activity.

[5] = biological target: T3, recombinant human norepinephrine transporter (Homo sapiens, UniProt P23975); assay: Norepinephrine functional uptake assay for human reuptake transporter; format: cell-based; conditions: [3H]norepinephrine uptake, HEK293 or MDCK cells expressing human norepinephrine transporter
T3 construct: expressed in transfected cells; host or cells: HEK293 or MDCK
T3 sequence (P23975 whole entry): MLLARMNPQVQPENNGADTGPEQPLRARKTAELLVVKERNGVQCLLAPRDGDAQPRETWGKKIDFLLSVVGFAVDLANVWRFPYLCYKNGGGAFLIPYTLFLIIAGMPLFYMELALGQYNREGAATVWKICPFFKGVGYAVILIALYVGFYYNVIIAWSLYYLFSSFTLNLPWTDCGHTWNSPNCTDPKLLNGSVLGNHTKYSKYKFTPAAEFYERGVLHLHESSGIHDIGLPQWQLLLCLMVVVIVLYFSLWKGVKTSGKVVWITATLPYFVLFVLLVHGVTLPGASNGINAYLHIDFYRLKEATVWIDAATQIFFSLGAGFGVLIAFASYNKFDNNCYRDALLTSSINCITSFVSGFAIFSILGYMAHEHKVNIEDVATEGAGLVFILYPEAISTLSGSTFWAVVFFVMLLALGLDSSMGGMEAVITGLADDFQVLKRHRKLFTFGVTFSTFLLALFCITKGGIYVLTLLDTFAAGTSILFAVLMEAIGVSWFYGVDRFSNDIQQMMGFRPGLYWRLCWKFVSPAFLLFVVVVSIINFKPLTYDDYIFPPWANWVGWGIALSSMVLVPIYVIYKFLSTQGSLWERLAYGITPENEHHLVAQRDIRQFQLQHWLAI
Description: Norepinephrine Functional Uptake Assay for Human Reuptake Transporter
The cells were plated before the assay. Test compound and/or vehicle was preincubated with cells in modified HEPES buffer pH 7.1 or pH 7.4 for 20 minutes at 18 to 25° C. . […] After the cells were washed to remove [^3H]norepinephrine not internalized, the cells were lysed, and the amount of tritium in the cell lysate was measured using a liquid scintillation counter to determine [^3H]norepinephrine uptake. Non-specific binding of tritium was measured in a control reaction containing 10 μM imipramine (or 10 μM nisoxetine), and was subtracted from the counts for assays to correct for non-specific binding of tritium. Reduction of [^3H]norepinephrine uptake by 50 percent or more (≧50%) relative to an uninhibited control reaction indicates significant inhibitory activity.

serotonin uptake sites, sequence (P31645 whole entry): as the sequence (P31645 whole entry) above

| Structure (SMILES) | immobility in the tail suspension test [1] | affinity for the serotonin uptake sites compared with the racemic compound [2] | IC50 [3] | IC50 [4] | IC50 ([5]; Human IC50 (nM) NET) | IC50 ([5]; read-out: Human IC50 (nM) NET) |
| --- | --- | --- | --- | --- | --- | --- |
| Clc1ccc([C@@]23CNC[C@@H]2C3)cc1Cl (single isomer, unassigned) [DOV 21,947, (+)-1-(3,4-dichlorophenyl)-3-azabicyclo[3.1.0]hexane] | dose-dependent reduction in immobility | significantly greater affinity | – | – | – | – |
| CC(N)C1=Cc2ccccc2[C@H](c2ccc(Cl)c(Cl)c2)C1 (single isomer, unassigned) [Compound 45] | – | – | 876 nM | 174 nM | 53 nM | – |
| CN(C)C1CC(c2ccc(Cl)c(Cl)c2)c2ccccc2C1O (single isomer, unassigned) [Compound 23c, 4-(3,4-dichlorophenyl)-2-(dimethylamino)-1,2,3,4-tetrahydronaphthalen-1-ol] | – | – | 2360 nM | 21 nM | 36 nM | – |
| CN[C@H]1Cc2ccc(OC)cc2[C@@H](c2ccc(Cl)c(Cl)c2)C1 (single isomer, unassigned) [Compound 32a.2, 4-(3,4-dichlorophenyl)-6-methoxy-N-methyl-1,2,3,4-tetrahydronaphthalen-2-amine] | – | – | 130 nM | 415 nM | – | 467 nM |
| CNC1c2ccccc2CCC1c1ccc(Cl)c(Cl)c1 (single isomer, unassigned) [Compound 40b, 2-(3,4-dichlorophenyl)-N-methyl-1,2,3,4-tetrahydronaphthalen-l-amine] | – | – | 7720 nM | 1790 nM | – | > 10000 nM |
| CN[C@H]1Cc2ccc(OC)cc2[C@@H](c2ccc(Cl)c(Cl)c2)C1 (single isomer, unassigned) [Compound 32a.4, 4-(3,4-dichlorophenyl)-6-methoxy-N-methyl-1,2,3,4-tetrahydronaphthalen-2-amine] | – | – | 958 nM | 1680 nM | – | 786 nM |
